Data taken from BigSolDB 2.1.

## CCOC(=O)[C@@H]1CSCN1.Cl
In 1,4-dioxane, 288.15 K
  solubility (mole fraction): 0.000476
In 1,4-dioxane, 293.15 K
  solubility (mole fraction): 0.000593
In 1,4-dioxane, 303.15 K
  solubility (mole fraction): 0.000872
In 1,4-dioxane, 313.15 K
  solubility (mole fraction): 0.00156
In 1,4-dioxane, 323.15 K
  solubility (mole fraction): 0.00266
In 2-butanone, 283.15 K
  solubility (mole fraction): 4.1e-05
In 2-butanone, 293.15 K
  solubility (mole fraction): 0.000107
In 2-butanone, 303.15 K
  solubility (mole fraction): 0.00018
In 2-butanone, 313.15 K
  solubility (mole fraction): 0.000298
In 2-butanone, 323.15 K
  solubility (mole fraction): 0.000434
In acetone, 283.15 K
  solubility (mole fraction): 4e-05
In acetone, 293.15 K
  solubility (mole fraction): 0.000116
In acetone, 303.15 K
  solubility (mole fraction): 0.000348
In acetone, 313.15 K
  solubility (mole fraction): 0.000859
In acetone, 323.15 K
  solubility (mole fraction): 0.00187
In acetonitrile, 283.15 K
  solubility (mole fraction): 0.000408
In acetonitrile, 293.15 K
  solubility (mole fraction): 0.00125
In acetonitrile, 303.15 K
  solubility (mole fraction): 0.00252
In acetonitrile, 313.15 K
  solubility (mole fraction): 0.00451
In acetonitrile, 323.15 K
  solubility (mole fraction): 0.00664
In dichloromethane, 283.15 K
  solubility (mole fraction): 0.00638
In dichloromethane, 288.15 K
  solubility (mole fraction): 0.01
In dichloromethane, 293.15 K
  solubility (mole fraction): 0.0128
In dichloromethane, 298.15 K
  solubility (mole fraction): 0.0157
In dichloromethane, 303.15 K
  solubility (mole fraction): 0.0187
In ethanol, 283.15 K
  solubility (mole fraction): 0.00937
In ethanol, 293.15 K
  solubility (mole fraction): 0.0125
In ethanol, 303.15 K
  solubility (mole fraction): 0.0193
In ethanol, 313.15 K
  solubility (mole fraction): 0.0306
In ethanol, 323.15 K
  solubility (mole fraction): 0.0473
In ethyl acetate, 283.15 K
  solubility (mole fraction): 0.000103
In ethyl acetate, 293.15 K
  solubility (mole fraction): 0.000161
In ethyl acetate, 303.15 K
  solubility (mole fraction): 0.000215
In ethyl acetate, 313.15 K
  solubility (mole fraction): 0.000273
In ethyl acetate, 323.15 K
  solubility (mole fraction): 0.000345
In isobutanol, 283.15 K
  solubility (mole fraction): 0.00153
In isobutanol, 293.15 K
  solubility (mole fraction): 0.00257
In isobutanol, 303.15 K
  solubility (mole fraction): 0.00495
In isobutanol, 313.15 K
  solubility (mole fraction): 0.00811
In isobutanol, 323.15 K
  solubility (mole fraction): 0.0117
In isopropanol, 283.15 K
  solubility (mole fraction): 0.00271
In isopropanol, 293.15 K
  solubility (mole fraction): 0.00323
In isopropanol, 303.15 K
  solubility (mole fraction): 0.00492
In isopropanol, 313.15 K
  solubility (mole fraction): 0.00807
In isopropanol, 323.15 K
  solubility (mole fraction): 0.0131
In methanol, 283.15 K
  solubility (mole fraction): 0.0465
In methanol, 293.15 K
  solubility (mole fraction): 0.0619
In methanol, 303.15 K
  solubility (mole fraction): 0.0835
In methanol, 313.15 K
  solubility (mole fraction): 0.112
In methanol, 323.15 K
  solubility (mole fraction): 0.142
In methyl acetate, 283.15 K
  solubility (mole fraction): 3.8e-05
In methyl acetate, 293.15 K
  solubility (mole fraction): 7e-05
In methyl acetate, 303.15 K
  solubility (mole fraction): 0.000126
In methyl acetate, 313.15 K
  solubility (mole fraction): 0.000192
In methyl acetate, 323.15 K
  solubility (mole fraction): 0.000276
In n-butanol, 283.15 K
  solubility (mole fraction): 0.00141
In n-butanol, 293.15 K
  solubility (mole fraction): 0.00427
In n-butanol, 303.15 K
  solubility (mole fraction): 0.00829
In n-butanol, 313.15 K
  solubility (mole fraction): 0.0124
In n-butanol, 323.15 K
  solubility (mole fraction): 0.017
In n-propanol, 283.15 K
  solubility (mole fraction): 0.00489
In n-propanol, 293.15 K
  solubility (mole fraction): 0.0078
In n-propanol, 303.15 K
  solubility (mole fraction): 0.012
In n-propanol, 313.15 K
  solubility (mole fraction): 0.0186
In n-propanol, 323.15 K
  solubility (mole fraction): 0.0298
In sec-butanol, 283.15 K
  solubility (mole fraction): 0.000766
In sec-butanol, 293.15 K
  solubility (mole fraction): 0.00103
In sec-butanol, 303.15 K
  solubility (mole fraction): 0.00182
In sec-butanol, 313.15 K
  solubility (mole fraction): 0.00365
In sec-butanol, 323.15 K
  solubility (mole fraction): 0.00936
In water, 283.15 K
  solubility (mole fraction): 0.0825
In water, 293.15 K
  solubility (mole fraction): 0.104
In water, 303.15 K
  solubility (mole fraction): 0.124
In water, 313.15 K
  solubility (mole fraction): 0.148
In water, 323.15 K
  solubility (mole fraction): 0.188
